We go through 22 compounds from patent publication US11987586B1 (TAKEDA PHARMACEUTICAL COMPANY LIMITED, priority 2022, dated 2024).

The assay has as its target T1, human OX2 receptor (Homo sapiens, UniProt O43614).
T1 construct: expressed in transfected cells
T1 sequence (O43614 1-444): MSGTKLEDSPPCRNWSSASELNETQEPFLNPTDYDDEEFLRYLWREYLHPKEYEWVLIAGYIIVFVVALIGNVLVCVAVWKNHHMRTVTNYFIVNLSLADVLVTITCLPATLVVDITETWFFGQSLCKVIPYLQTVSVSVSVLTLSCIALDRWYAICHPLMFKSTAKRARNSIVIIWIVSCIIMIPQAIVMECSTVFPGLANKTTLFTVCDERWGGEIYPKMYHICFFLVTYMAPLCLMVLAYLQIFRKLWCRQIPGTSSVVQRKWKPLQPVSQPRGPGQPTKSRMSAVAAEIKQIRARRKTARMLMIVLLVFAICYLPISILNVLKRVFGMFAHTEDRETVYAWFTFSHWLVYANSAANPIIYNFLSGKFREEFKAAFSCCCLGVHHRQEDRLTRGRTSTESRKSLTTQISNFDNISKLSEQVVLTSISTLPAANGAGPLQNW
Briefly: Measurement of orexin type 2 receptor agonist activity (calcium fluorescence, Fluo-4, FDSS). As to conditions: 3 uM test compound; CHO cells expressing human OX2 receptor; DMSO = 0%, 10 nM orexin A (human) = 100%. The format is cell-based. The method in brief:
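CHO-K1 cells stably expressing human OX2 receptor (residues 1-444) were loaded with Fluo-4 AM plus probenecid. Calcium fluorescence after compound addition was recorded for 1 min 40 s. Activity (%) was scaled between DMSO (0%) and 10 nM orexin A final (100%).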

`CCS(=O)(=O)N[C@@H]1CN2C(=O)N(c3noc4cc(COC)c(F)c(-c5c(F)cccc5F)c34)CC[C@@H]2C1(F)F` [Example 221, N-{(4aR,6R)-2-[4-(2,6-difluorophenyl)-5-fluoro-6-(methoxymethyl)-1,2-benzoxazol-3-yl]-5,5-difluoro-1-oxooctahydropyrrolo[1,2-c]pyrimidin-6-yl}ethanesulfonamide]: the “OX2R agonist activity (3 uM, %)” value was 104%.

Consider `COCc1cc(-c2c(F)cc(F)cc2F)c2c(N3CC[C@H]4N(C[C@@H](NS(=O)(=O)C5CC5)C4(F)F)C3=O)noc2c1` [Example 222, N-{(4aR,6R)-5,5-difluoro-2-[6-(methoxymethyl)-4-(2,4,6-trifluorophenyl)-1,2-benzoxazol-3-yl]-1-oxooctahydropyrrolo[1,2-c]pyrimidin-6-yl}cyclopropanesulfonamide], for which the “OX2R agonist activity (3 uM, %)” value was 107%.

In the case of `CS(=O)(=O)N[C@@H]1CN2C(=O)N(c3noc4cccc(-c5ccccc5)c34)CC[C@@H]2C1(F)F` [Example 223, N-[(4aR,6R)-5,5-difluoro-1-oxo-2-(4-phenyl-1,2-benzoxazol-3-yl)octahydropyrrolo[1,2-c]pyrimidin-6-yl]methanesulfonamide], the “OX2R agonist activity (3 uM, %)” value is listed as 104%.

For `CS(=O)(=O)N[C@@H]1CN2C(=O)N(c3noc4cc(Br)cc(-c5c(F)cccc5F)c34)CC[C@@H]2C1(F)F` [Example 224, N-{(4aR,6R)-2-[6-bromo-4-(2,6-difluorophenyl)-1,2-benzoxazol-3-yl]-5,5-difluoro-1-oxooctahydropyrrolo[1,2-c]pyrimidin-6-yl}methanesulfonamide], the “OX2R agonist activity (3 uM, %)” value is listed as 109%.

Turning to `CS(=O)(=O)N[C@@H]1CN2C(=O)N(c3noc4cc(C(F)(F)F)cc(-c5c(F)cc(F)cc5F)c34)CC[C@@H]2C1(F)F` [Example 225, N-{(4aR,6R)-5,5-difluoro-1-oxo-2-[6-(trifluoromethyl)-4-(2,4,6-trifluorophenyl)-1,2-benzoxazol-3-yl]octahydropyrrolo[1,2-c]pyrimidin-6-yl}methanesulfonamide], the “OX2R agonist activity (3 uM, %)” value stood at 106%.

On to `COCc1cc2onc(-n3cc4n(c3=O)C[C@@H](NS(C)(=O)=O)C4(F)F)c2c(-c2c(F)cccc2F)c1F` [Example 226, N-{(6R)-2-[4-(2,6-difluorophenyl)-5-fluoro-6-(methoxymethyl)-1,2-benzoxazol-3-yl]-7,7-difluoro-3-oxo-2,5,6,7-tetrahydro-3H-pyrrolo[1,2-c]imidazol-6-yl}methanesulfonamide], for which the “OX2R agonist activity (3 uM, %)” value amounted to 93%.

Regarding `COCc1cc2onc(N3CC[C@H]4N(C[C@@H](NS(C)(=O)=O)C4(F)F)C3=O)c2c(-c2c(F)cc(F)cc2F)c1F` [Example 227, N-{(4aR,6R)-5,5-difluoro-2-[5-fluoro-6-(methoxymethyl)-4-(2,4,6-trifluorophenyl)-1,2-benzoxazol-3-yl]-1-oxooctahydropyrrolo[1,2-c]pyrimidin-6-yl}methanesulfonamide], the “OX2R agonist activity (3 uM, %)” value is 98%.

With `CCOc1cc2onc(N3CC[C@H]4N(C[C@@H](NS(C)(=O)=O)C4(F)F)C3=O)c2c(-c2c(F)cccc2F)c1F` [Example 228, N-{(4aR,6R)-2-[4-(2,6-difluorophenyl)-6-ethoxy-5-fluoro-1,2-benzoxazol-3-yl]-5,5-difluoro-1-oxooctahydropyrrolo[1,2-c]pyrimidin-6-yl}methanesulfonamide], the “OX2R agonist activity (3 uM, %)” value worked out at 102%.

As to `Cc1cc2onc(-n3cc4n(c3=O)C[C@@H](NS(C)(=O)=O)C4(F)F)c2c(-c2c(F)cc(F)cc2F)n1` [Example 229, N-{(6R)-7,7-difluoro-2-[6-methyl-4-(2,4,6-trifluorophenyl)[1,2]oxazolo[4,5-c]pyridin-3-yl]-3-oxo-2,5,6,7-tetrahydro-3H-pyrrolo[1,2-c]imidazol-6-yl}methanesulfonamide], the “OX2R agonist activity (3 uM, %)” value was determined as 113%.

As for `CCc1cc(-c2c(F)cc(F)cc2F)c2c(-n3cc4n(c3=O)C[C@@H](NS(C)(=O)=O)C4(F)F)noc2n1` [Example 230, N-{(6R)-2-[6-ethyl-4-(2,4,6-trifluorophenyl)[1,2]oxazolo[5,4-b]pyridin-3-yl]-7,7-difluoro-3-oxo-2,5,6,7-tetrahydro-3H-pyrrolo[1,2-c]imidazol-6-yl}methanesulfonamide], the “OX2R agonist activity (3 uM, %)” value was determined as 111%.

On to `CCS(=O)(=O)N[C@@H]1CN2C(=O)N(c3noc4cc(COC)cc(-c5c(F)cc(F)cc5F)c34)CC[C@@H]2C1(F)F` [Example 232, N-{(4aR,6R)-5,5-difluoro-2-[6-(methoxymethyl)-4-(2,4,6-trifluorophenyl)-1,2-benzoxazol-3-yl]-1-oxooctahydropyrrolo[1,2-c]pyrimidin-6-yl}ethanesulfonamide], for which the “OX2R agonist activity (3 uM, %)” value is reported as 107%.

On to `Cc1cc2onc(N3CC[C@H]4N(C[C@@H](NS(=O)(=O)C5CC5)C4(F)F)C3=O)c2c(-c2c(F)cc(F)cc2F)n1` [Example 233, N-{(4aR,6R)-5,5-difluoro-2-[6-methyl-4-(2,4,6-trifluorophenyl)[1,2]oxazolo[4,5-c]pyridin-3-yl]-1-oxooctahydropyrrolo[1,2-c]pyrimidin-6-yl}cyclopropanesulfonamide], for which the “OX2R agonist activity (3 uM, %)” value was 109%.

Regarding `O=C1N(c2noc3ccc(F)c(-c4c(F)cc(F)cc4F)c23)CC[C@H]2N1C[C@@H](NS(=O)(=O)C1CC1)C2(F)F` [Example 234, N-{(4aR,6R)-5,5-difluoro-2-[5-fluoro-4-(2,4,6-trifluorophenyl)-1,2-benzoxazol-3-yl]-1-oxooctahydropyrrolo[1,2-c]pyrimidin-6-yl}cyclopropanesulfonamide], the “OX2R agonist activity (3 uM, %)” value was determined as 111%.

Regarding `CCS(=O)(=O)N[C@@H]1CN2C(=O)N(c3noc4nccc(-c5c(F)cc(F)cc5F)c34)CC[C@@H]2C1(F)F` [Example 235, N-{(4aR,6R)-5,5-difluoro-1-oxo-2-[4-(2,4,6-trifluorophenyl)[1,2]oxazolo[5,4-b]pyridin-3-yl]octahydropyrrolo[1,2-c]pyrimidin-6-yl}ethanesulfonamide], the “OX2R agonist activity (3 uM, %)” value came out at 113%.

As for `O=C1N(c2noc3cc(F)cc(-c4c(F)cc(F)cc4F)c23)CC[C@H]2N1C[C@@H](NS(=O)(=O)CF)C2(F)F` [Example 236, N-{(4aR,6R)-5,5-difluoro-2-[6-fluoro-4-(2,4,6-trifluorophenyl)-1,2-benzoxazol-3-yl]-1-oxooctahydropyrrolo[1,2-c]pyrimidin-6-yl}-1-fluoromethanesulfonamide], the “OX2R agonist activity (3 uM, %)” value stood at 108%.

For the compound `CS(=O)(=O)N[C@@H]1CN2C(=O)N(c3noc4nccc(-c5c(F)cc(F)cc5F)c34)CC[C@@H]2C1(F)F` [Example 237, N-{(4aR,6R)-5,5-difluoro-1-oxo-2-[4-(2,4,6-trifluorophenyl)[1,2]oxazolo[5,4-b]pyridin-3-yl]octahydropyrrolo[1,2-c]pyrimidin-6-yl}methanesulfonamide], the “OX2R agonist activity (3 uM, %)” value came out at 110%.

Turning to `COCc1cc2onc(N3CC[C@H]4N(C[C@@H](NS(C)(=O)=O)C4(F)F)C3=O)c2c(-c2c(F)cccc2F)c1F` [Example 238, N-{(4aR,6R)-2-[4-(2,6-difluorophenyl)-5-fluoro-6-(methoxymethyl)-1,2-benzoxazol-3-yl]-5,5-difluoro-1-oxooctahydropyrrolo[1,2-c]pyrimidin-6-yl}methanesulfonamide], the “OX2R agonist activity (3 uM, %)” value turned out to be 106%.

Turning to `CCS(=O)(=O)N[C@@H]1Cn2c(cn(-c3noc4cc(COC)c(F)c(-c5c(F)cc(F)cc5F)c34)c2=O)C1(F)F` [Example 239, N-{(6R)-7,7-difluoro-2-[5-fluoro-6-(methoxymethyl)-4-(2,4,6-trifluorophenyl)-1,2-benzoxazol-3-yl]-3-oxo-2,5,6,7-tetrahydro-3H-pyrrolo[1,2-c]imidazol-6-yl}ethanesulfonamide], the “OX2R agonist activity (3 uM, %)” value is given as 95%.

As to `CS(=O)(=O)N[C@@H]1CN2C(=O)N(c3noc4ccc(F)c(-c5c(F)cc(F)cc5F)c34)CC[C@@H]2C1(F)F` [Example 241, N-{(4aR,6R)-5,5-difluoro-2-[5-fluoro-4-(2,4,6-trifluorophenyl)-1,2-benzoxazol-3-yl]-1-oxooctahydropyrrolo[1,2-c]pyrimidin-6-yl}methanesulfonamide], the “OX2R agonist activity (3 uM, %)” value is 100%.

With `O=C1N(c2noc3cccc(-c4c(F)cc(F)cc4F)c23)CC[C@H]2N1C[C@@H](NS(=O)(=O)C1CC1)C2(F)F` [Example 242, N-{(4aR,6R)-5,5-Difluoro-1-oxo-2-[4-(2,4,6-trifluorophenyl)-1,2-benzoxazol-3-yl]octahydropyrrolo[1,2-c]pyrimidin-6-yl}cyclopropanesulfonamide], the “OX2R agonist activity (3 uM, %)” value came to 105%.

In the case of `COCc1cc2onc(-n3cc4n(c3=O)C[C@@H](NS(C)(=O)=O)C4(F)F)c2c(-c2c(F)cc(F)cc2F)c1F` [Example 244, N-{(6R)-7,7-difluoro-2-[5-fluoro-6-(methoxymethyl)-4-(2,4,6-trifluorophenyl)-1,2-benzoxazol-3-yl]-3-oxo-2,5,6,7-tetrahydro-3H-pyrrolo[1,2-c]imidazol-6-yl}methanesulfonamide], the “OX2R agonist activity (3 uM, %)” value was 89%.

`CCS(=O)(=O)N[C@@H]1CN2C(=O)N(c3noc4cc(F)cc(-c5c(F)cccc5F)c34)CC[C@@H]2C1(F)F` [Example 247, N-{(4aR,6R)-2-[4-(2,6-difluorophenyl)-6-fluoro-1,2-benzoxazol-3-yl]-5,5-difluoro-1-oxooctahydropyrrolo[1,2-c]pyrimidin-6-yl}ethanesulfonamide]: the “OX2R agonist activity (3 uM, %)” value was found to be 101%.
